pKd: −log10 of the molar value. Calls of active or inactive are those of the source. No cut-off for these calls is given here.
Experiments:
[1] = molecular target: T1, Heat shock protein HSP 90-alpha (Homo sapiens, UniProt P07900); assay: Binding affinity to human HSP90alpha isoform 1 N-terminal ATP binding domain (9 to 236 residues) expressed in Escherichia coli BL21(DE3) assessed as melting temperature at 100 uM by SYPRO orange dye-based thermal shift assay
[2] = Aqueous solubility of the compound at >100 uM; format: physicochemical; details: buffer
Saccharomyces cerevisiae = assay: Binding affinity to yeast HSP90 N-terminal ATP binding domain by high-throughput virtual screening method
[3] = molecular target: T1, Heat shock protein HSP 90-alpha; assay: Binding affinity to 15N-labeled human HSP90alpha isoform 1 N-terminal ATP binding domain (9 to 236 residues) expressed in Escherichia coli BL21(DE3) by 1H-15N HSQC NMR spectroscopy
[4] = molecular target: T1, Heat shock protein HSP 90-alpha; assay: Binding affinity to 15N-labeled human HSP90alpha isoform 1 N-terminal ATP binding domain (9 to 236 residues) expressed in Escherichia coli BL21(DE3) assessed as reduction in protein signal intensity at 625 uM by 1H-15N HSQC NMR spectroscopy

SMILES	Tm [1] [°C]	solubility [2]	Activity (Saccharomyces cerevisiae)	pKd [3]	Activity [4]
O=c1c2[nH]c3ccccc3c2ncn1CCc1ccc(O)cc1	30.8	Insoluble	Active		
O=c1c2[nH]c3ccccc3c2ncn1CCc1c[nH]cn1	32.3	Soluble	Active		
O=C(O)COc1cc(OCC(=O)O)c2c(-c3ccccc3)cc(=O)oc2c1	32.4	Soluble	Active		
CC(NCc1c(O)ccc2c(-c3ccccc3)cc(=O)oc12)C(=O)O (configuration not stated)	32.5	Soluble	Active		
O=C(Cc1c(O)c2ccccc2[nH]c1=O)NCCO	32.8	Soluble	Active		
Nc1ncnc2c1ncn2[C@@H]1O[C@H](COP(=O)(O)OP(=O)(O)O)[C@@H](O)[C@H]1O	36.7				
CC(=O)Nc1ccc(N[C@@H]2O[C@H](CO)[C@@H](O)[C@H]2O)cc1	31.8	Soluble	Active		
CCOC(=O)c1cc2n(c1N)-c1ccccc1C2=O	32.4	Soluble	Active		
COc1ccc2[nH]cc(C(=O)CN3C[C@@H]4C[C@@H](C3)c3cccc(=O)n3C4)c2c1	33.1	Soluble	Active		

Continued, values first:

Tm [1] [°C]	solubility [2]	Activity (Saccharomyces cerevisiae)	pKd [3]	Activity [4]	SMILES
41.7	Soluble	Active	< 3.30		CCCc1cc(C(=O)Cc2ccc3c(c2)OCO3)c(O)cc1O
32.2	Soluble	Active			CCc1cc(-c2n[nH]c(C)c2-c2ccc3c(c2)OCCCO3)c(O)cc1OCC(=O)O
42.1	Soluble	Active	4.70		CCc1cc(C(=O)Cc2ccc(OC)cc2)c(O)cc1O
32.4	Soluble	Active			Cc1oc2cc(OCC(=O)NCO)ccc2c(=O)c1-c1ccc2c(c1)OCCCO2
32.7	Soluble	Active		Active	Cc1c(OCc2ccc(C(=O)O)o2)ccc2c3c(c(=O)oc12)CCC3
35.5	Soluble	Active			N=c1oc2cc(O)ccc2cc1C(=O)NCc1ccccc1
49.8	Soluble	Active	5.52		CCOC(=O)c1ccc(-c2c(-c3cc(CC)c(O)cc3O)n[nH]c2C)o1
36.5	Soluble	Active			O=c1c2[nH]c3ccccc3c2ncn1CCc1ccc(O)c(O)c1
31.3	Soluble	Active			O=C(O)C1Cc2c([nH]c3ccccc23)C(c2ccc(O)c(O)c2)N1 (configuration not stated)
37.5	Soluble	Active	3.43		O=C(Cc1ccc2c(c1)OCCCO2)c1ccc(O)c(O)c1O
40.3	Soluble	Active	5.70		CCCc1cc(C(=O)Cc2ccc(C(=O)OCC)o2)c(O)cc1O
32.4	Soluble	Active			Cc1cc(=O)oc2cc(OCc3ccc(C(=O)O)o3)ccc12
